Assay [1] concerns PC9-osiR-NCI1 cells. Nature of the assay: Cell-cycle analysis by flow cytometry (propidium iodide). The note with it: 50 nM osimertinib or 100 nM AU-16770, 18 h. The assay is classed as cell-based, human. Here is the method:
(§1) PC9 and PC9-osiR-NCI1 cells were initially grown in an RPMI-1640 medium supplemented with 10% FBS, 1% penicillin/streptomycin, and 2 […]. Following 3–4 days of growth, cells were trypsinized, replated in 10 cm Petri dishes and grown in drug-free RPMI-1640, 10% FBS, and 1% penicillin/streptomycin. Both groups of cells were treated with DMSO (vehicle), osimertinib (50 nM), or AU-16770 (100 nM) for 18 h. Cells were trypsinized, washed with PBS, fixed in 70% ethanol, washed twice in PBS, and approximately 5 × 10^5 cells/mL were incubated in […] propidium iodide/PBS and 100 units/mL RNase to label the DNA for 1 h before it was analyzed by FACS.

The test system of assay [2] is PC9 cells. Described as above. The conditions noted are these: 50 nM osimertinib or 100 nM AU-16770, 18 h. The assay is classed as cell-based, human. Here is the method:
as §1

The test system of assay [3] is PC9-osiR-NCI1 cells. Nature of the assay: Cell-growth-inhibition end-point assay (CellTiter-Glo, 72 h). The format is cell-based. The note with it: Homo sapiens, read-out: IC50 (osimertinib), PC9-osiR-NCI1. Here is the method: (§2) After 3–4 days of growth, surviving cells were trypsinized and plated again at the same initial density and the next day, the medium was replaced with a fresh growth medium, supplemented with 2× (relative to the previous concentration) of osimertinib. This process continued until osimertinib concentration reached […]. The newly generated osimertinib-resistant cells (H1975-osiR-NCI1, PC9-osiR-NCI1, HCC827-osiR-NCI1, and HCC827-osiR-NCI2) were then maintained at […] osimertinib.
(§3) Approximately 1500 cells/[…] were plated in 96-well plates with 4 wells for each treatment condition. Plates were incubated at 37 °C. For the cell growth assay, one set of cells was treated each day for 5 days with cell titer glow reagent (Promega), and luciferase luminescence (indicator of cell viability) was measured according to the manufacturer’s protocol. For the growth inhibition end-point assay, cells in 96-well plates were treated with target drugs as follows.
On the technique in general: Cellular ATP, detected with luciferase, serves as a proxy for viable cell number.

For assay [4], the system named is H1975-osiR-NCI1 cells. The description is as above. The note with it: Homo sapiens. The format is cell-based. Here is the method:
as §2, §3

The subject of assay [5] is HCC827-osiR-NCI1 cells. The assay is described as above. The assay is classed as cell-based. The conditions noted are these: Homo sapiens. Here is the method: as §2, §3
In assay [6] the test system is HCC827 cells. The assay is described as above. The format is cell-based. The note with it: Homo sapiens, HCC827, read-out: IC50 (osimertinib), HCC827. Here is the method:
as §3

The test system of assay [7] is PC9 cells. Described as above. The format is cell-based. The note with it: Homo sapiens, PC-9, read-out: IC50 (osimertinib), PC9. Here is the method:
as §3

The test system of assay [8] is H1975 cells. The description is as above. The format is cell-based. The conditions noted are these: Homo sapiens, NCI-H1975, osimertinib alone; Figure 1B. Here is the method: as §3
The subject of assay [9] is PC9-osiR-NCI1-derived tumors. Nature of the assay: Subcutaneous xenograft mouse model. The assay is classed as in vivo, athymic female nude mice. Here is the method: All mice xenograft studies were conducted on 5–6-week-old female athymic nude mice […] with approval from the NCI Animal Care and Use Committee (ACUC). Mice were obtained from NCI-Frederick and maintained in a pathogen-free facility at the NCI. H1975-osiR-NCI1 or PC9-osiR-NCI1 cells were cultured in RPMI (Millipore-Sigma) supplemented with 10% fetal bovine serum (Gemini) and 1% penicillin/streptomycin. All cell lines were then cultured in a humidified incubator with 5% CO2 at 37 °C. Cells were detached using 0.25% trypsin (ThermoFisher) and resuspended in PBS prior to implantation. Approximately 2 × 10^6 cells/0.1 mL/mouse were implanted subcutaneously. […] Tumor growth was monitored twice weekly by bilateral caliper measurement and tumor volume was calculated using the length × diameter^2 formula. Mice with tumor volume <200 mm^3 were randomized into vehicle or treatment groups to ensure equal distribution across groups. However, for tumor tissue collection and lysate preparation, mice with xenografts were maintained with osimertinib until tumor size reached approximately 900 mm^3 prior to drug treatment for 5 days. Vehicle (0.5% methyl cellulose), osimertinib (5 mg/kg/day), AU-15506 (5 mg/kg/day), or AU-16770 (5 mg/kg/day) were administered by oral gavage. AU-15506 or AU-16770 were prepared in a solution containing 10% PEG400, 10% D-ɑ-tocopheryl polyethylene glycol succinate (TPGS), and 0.4% Tween 80. Tumor size was measured twice weekly. Tumor volume for each mouse was converted to percent change based on a baseline volume of 100% on treatment day 0. Tumor growth inhibition was assessed by comparison of either the average tumor volume or mean changes in tumor volume for the control and treatment groups. Statistical significance was evaluated using a two-tailed Student’s t test.

Assay [10] has as its system H1975, PC9, and HCC827 parental and osimertinib-resistant cells. Briefly: Cell-growth-inhibition assays, summary over the cell panel. The format is cell-based. The conditions noted are these: Homo sapiens. Here is the method:
as §3

Assay [11] addresses FGFR1 (Homo sapiens, UniProt P11362). Also on record: method as in PMID 19282669. The conditions noted are these: at 1 μM; cited from earlier work.

Where two headings read alike, the source gives them in different places.

Sequence of FGFR1 (P11362 22-822, species assumed): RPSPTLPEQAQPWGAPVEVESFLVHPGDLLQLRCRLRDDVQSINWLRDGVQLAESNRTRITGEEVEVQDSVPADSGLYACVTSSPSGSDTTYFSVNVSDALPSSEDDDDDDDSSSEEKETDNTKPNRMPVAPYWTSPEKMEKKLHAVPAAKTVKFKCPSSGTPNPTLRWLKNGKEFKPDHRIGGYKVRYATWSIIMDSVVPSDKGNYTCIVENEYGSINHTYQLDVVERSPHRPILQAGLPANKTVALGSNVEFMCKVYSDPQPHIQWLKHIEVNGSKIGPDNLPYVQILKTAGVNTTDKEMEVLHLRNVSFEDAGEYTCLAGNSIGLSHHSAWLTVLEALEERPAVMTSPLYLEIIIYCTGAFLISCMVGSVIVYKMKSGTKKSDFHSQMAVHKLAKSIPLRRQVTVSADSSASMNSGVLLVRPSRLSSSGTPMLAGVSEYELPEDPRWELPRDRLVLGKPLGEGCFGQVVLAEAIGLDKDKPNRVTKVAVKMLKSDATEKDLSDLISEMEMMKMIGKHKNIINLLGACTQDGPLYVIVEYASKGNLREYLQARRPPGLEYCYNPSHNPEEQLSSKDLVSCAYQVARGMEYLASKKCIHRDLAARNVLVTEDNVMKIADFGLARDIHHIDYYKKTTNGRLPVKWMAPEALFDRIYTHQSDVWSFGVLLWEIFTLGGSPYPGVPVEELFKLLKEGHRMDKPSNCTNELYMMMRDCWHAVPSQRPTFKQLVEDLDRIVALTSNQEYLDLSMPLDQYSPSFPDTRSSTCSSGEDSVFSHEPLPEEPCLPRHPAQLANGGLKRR

Turning to `C=CC(=O)Nc1cc(Nc2nccc(-c3cn(C)c4ccccc34)n2)c(OC)cc1N(C)CCN(C)C` [osimertinib], in assay [1], the “Cell Cycle Phase % G1, PC9-osiR” value is on record as 54.10%. The “Cell Cycle Phase % G2, PC9-osiR” value in assay [1] stood at 1.41%. Moreover, in [1], the “Cell Cycle Phase % S, PC9-osiR” value was 38.40%. The “Cell Cycle Phase % G1, PC9” value in [2] was determined as 67.40%. For the same molecule, the “Cell Cycle Phase % G2, PC9” value in assay [2] amounted to 24.8%. For the same molecule, in [2], the “Cell Cycle Phase % S, PC9” value is 13.10%. Further, the IC50 in assay [3] is 2210 nM; in [4] (NCI-H1975/OSIR, osimertinib alone, read-out: IC50, H1975-osiR cells), 1860 nM; in assay [4] (read-out: IC50 (osimertinib), H1975-osiR-NCI1), 1860 nM; in assay [5] (read-out: IC50 (osimertinib), HCC827-osiR-NCI1), 5490 nM; in [5] (read-out: IC50, HCC827-osiR cells), 5490 nM; in [6], 7.5 nM. For the same molecule, the IC50 was 37.5 nM in assay [7]; 46.8 nM in assay [8]; 1860 to 5490 nM in assay [10] (read-out: IC50s, osimertinib-resistant cells (range over cell lines)); 7.57 to 46.8 nM in assay [10] (read-out: IC50s, osimertinib-sensitive cells (range over cell lines)). Further, the “effect on xenograft tumor growth” value in assay [9] (5 mg/kg/day oral gavage, AU-15506 arms 14 days, AU-16770 arms 28 days) is “induced some tumor regression”. Besides, the “median survival (Kaplan–Meier)” value in [9] (5 mg/kg/day, combination = AU-16770-osimertinib (days 0–32), AU-15506-osimertinib (days 33–46)) worked out at 40 days. Further, the “Tumor growth inhibition (TGI)” value in [9] (Day 28, 5 mg/kg/day oral gavage) was 50%.
Regarding `CN(C)C/C=C/C(=O)Nc1ccc(C(=O)N2CCC[C@@H](Nc3ncc(Cl)c(-c4c[nH]c5ccccc45)n3)C2)cc1` [THZ531], the “inhibition of FGFR1” value in assay [11] is on record as 82%.

Source of the values: paper PMC10137182, “Novel CDK12/13 Inhibitors AU-15506 and AU-16770 Are Potent Anti-Cancer Agents in EGFR Mutant Lung Adenocarcinoma with and without Osimertinib Resistance” (Cancers, 2023).
